# Test results published in the NIST ThermoML archive (doi:10.1016/j.jct.2017.06.001).
# ± gives the expanded uncertainty stated by the source.
# Key:
# [1] = 100 kPa, Liquid; for mass density: Vibrating tube method; for speed of sound: Frequency=5 MHz, Pulse-echo method
# [2] = xn = mol fraction of the nth substance listed; conditions: 100 kPa, Liquid, x2 = 0; for mass density: Vibrating tube method; for speed of sound: Frequency=5 MHz, Pulse-echo method
smiles,measurement,setting,value
"OCCCCCO [1,5-pentanediol]",mass density,[1]; 278.15 K,998 ± 2.1 kg/m3
same,mass density,[1]; 283.15 K,995 ± 2.1 kg/m3
same,speed of sound,[1]; 288.15 K,1616.4 ± 2.3 m/s
same,mass density,[1]; 288.15 K,992.2 ± 2.1 kg/m3
same,speed of sound,[1]; 293.15 K,1605 ± 2.3 m/s
same,mass density,[1]; 293.15 K,989.3 ± 2.1 kg/m3
same,speed of sound,[1]; 298.15 K,1593.8 ± 2.3 m/s
same,mass density,[1]; 298.15 K,986.5 ± 2.1 kg/m3
same,speed of sound,[1]; 303.15 K,1582.5 ± 2.3 m/s
same,mass density,[1]; 303.15 K,983.6 ± 2.1 kg/m3
same,speed of sound,[1]; 308.15 K,1571.3 ± 2.3 m/s
same,mass density,[1]; 308.15 K,980.7 ± 2.1 kg/m3
same,speed of sound,[1]; 313.15 K,1560.2 ± 2.3 m/s
same,mass density,[1]; 313.15 K,977.8 ± 2.1 kg/m3
same,speed of sound,[1]; 318.15 K,1549 ± 2.3 m/s
same,mass density,[1]; 318.15 K,974.9 ± 2.1 kg/m3
same,mass density,[1]; 323.15 K,971.9 ± 2.1 kg/m3
same,mass density,[1]; 328.15 K,969 ± 2.1 kg/m3
same,mass density,[1]; 333.15 K,965.9 ± 2.1 kg/m3
O [water] + OCCCCCO,mass density,[2]; 278.15 K,999.97 ± 0.16 kg/m3
same,mass density,[2]; 283.15 K,999.7 ± 0.16 kg/m3
same,speed of sound,[2]; 308.15 K,1519.2 ± 1.1 m/s
same,speed of sound,[2]; 313.15 K,1528.8 ± 1.2 m/s
same,speed of sound,[2]; 318.15 K,1536.7 ± 1.2 m/s
same,mass density,[2]; 323.15 K,988.03 ± 0.16 kg/m3
same,mass density,[2]; 328.15 K,985.68 ± 0.16 kg/m3
same,mass density,[2]; 333.15 K,983.19 ± 0.16 kg/m3
